Here are results for five compounds from patent US10000471B2, “Pyrazole P38 map kinase inhibitors” (Respivert Limited, priority 2010, dated 2018).

Data set [1] has as its system IL-8 release in d-U937 cells. The data set can be described thus: LPS-induced IL-8 release in d-U937 cells. Format: cell-based, human. Conditions: Homo sapiens, dU937. An outline of the steps: (§1)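 Sandwich ELISA of TNFα and IL-8 in supernatants after 4 hr 0.1 μg/mL LPS (E. coli O111:B4) challenge of U937 cells differentiated with PMA 100 ng/ml for 48–72 hr, compound added 2 hr beforehand. IL-8: IC50 from inhibition versus vehicle; TNFα: REC50 from inhibition as percentage of 10 μg/mL BIRB796 effect.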

For data set [2], the system named is Differentiated U937 cells. The data set can be described thus: Cell viability MTT assay. Format: cell-based, human. Conditions: negative = apparent increase in viability; for MTT Assay (Viability) 4 h d-U937, percentage loss of cell viability: 4 hr in 5% FCS; for MTT Assay (Viability) 24 h d-U937, percentage loss of cell viability: 24 h in 10% FCS. An outline of the steps: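 Differentiated U937 cells pre-incubated with compound either 4 hr in 5% FCS or 24 h in 10% FCS, then 1 hr MTT. Formazan dissolved in DMSO, absorbance at 550 nm. Percentage viability loss relative to 0.5% DMSO vehicle; apparent increases appear as negative percentages.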
In general terms: Tetrazolium assays rely on reduction of a dye to a coloured formazan, in cell work by metabolically active cells.

The subject of data set [3] is TNFα release in THP-1 cells. The experiment in a line: LPS-induced TNFα release in THP-1 cells. Format: cell-based, human. Conditions: Homo sapiens. An outline of the steps: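 IC50 derived from concentration-response of TNFα inhibition relative to vehicle, with TNFα quantified by sandwich ELISA in supernatants. THP-1 cells were challenged 4 hr with LPS (E. coli, 3 μg/mL).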

For data set [4], the system named is TNFα release in d-U937 cells. The experiment in a line: LPS-induced TNFα release in d-U937 cells. As to conditions: Homo sapiens, dU937, relative to 10 μg/mL BIRB796, read-out: LPS/TNFα REC50 d-U937. Format: cell-based, human. An outline of the steps:
as §1

Data set [5] deals with ICAM-1 induction in BEAS2B cells. The experiment in a line: Poly I:C-induced ICAM-1 induction in BEAS2B cells. As to conditions: Homo sapiens, BEAS-2B, read-out: PolyIC/ICAM1 IC50 BEAS2B. The format is cell-based, human. An outline of the steps:
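IC50 reflects inhibition of cell-surface ICAM-1 relative to vehicle, read by ELISA (OD450 against 655 nm) and divided by crystal violet OD595 for cell number. Readings were taken 18 hr after transfection of 1 μg/mL poly I:C into BEAS2B cells. Compound was added 2 hr before stimulation.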

Data set [6] addresses T1, p38 MAPKα isoform (MAPK14) (Homo sapiens, UniProt Q16539).
T1 construct: purchased Invitrogen
The experiment in a line: Enzyme inhibition assay (FRET, Z-LYTE), p38 MAPKα via MAPKAP-K2 activation. The format is biochemical. As to conditions: read-out: Enzyme Inhibition IC50 p38α. The essentials:
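Z-LYTE FRET format, in which protease cleaves only non-phosphorylated peptide, read after 1 h development. Compound was mixed with p38 MAPKα for 2 h at RT, and inhibition was gauged from MAPKAP-K2 activation/phosphorylation rather than directly. Percent inhibition against an uninhibited control was fitted to give IC50.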

For another data set, the target named is T2, p38 MAPKγ (MAPK12) (Homo sapiens, UniProt P53778).
T2 construct: purchased Invitrogen
T2 sequence (P53778 1-367): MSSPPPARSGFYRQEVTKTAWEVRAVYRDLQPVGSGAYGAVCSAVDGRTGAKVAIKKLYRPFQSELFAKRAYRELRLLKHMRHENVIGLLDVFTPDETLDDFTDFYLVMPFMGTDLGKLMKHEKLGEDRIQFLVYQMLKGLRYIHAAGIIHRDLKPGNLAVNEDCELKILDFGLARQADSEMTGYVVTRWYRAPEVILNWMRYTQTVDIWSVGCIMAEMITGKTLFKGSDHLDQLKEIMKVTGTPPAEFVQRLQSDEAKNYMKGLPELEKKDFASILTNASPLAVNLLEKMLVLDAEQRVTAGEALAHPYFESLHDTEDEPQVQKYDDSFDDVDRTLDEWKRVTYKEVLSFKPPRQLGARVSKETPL
The data set can be described thus: Enzyme inhibition assay (FRET, Z-LYTE), p38 MAPKγ. As to conditions: read-out: Enzyme Inhibition IC50 p38γ. Format: biochemical. The essentials:
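Z-LYTE FRET readout: after 1 h kinase reaction (ATP 100 μM, peptide 2 μM) following 2 h RT enzyme–compound preincubation in HEPES, protease cleaves only unphosphorylated peptide. Percent inhibition from donor/acceptor ratio relative to control; IC50 fitted from the curve.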

Structures are written as SMILES.

T1 sequence (Q16539 whole entry, canonical isoform): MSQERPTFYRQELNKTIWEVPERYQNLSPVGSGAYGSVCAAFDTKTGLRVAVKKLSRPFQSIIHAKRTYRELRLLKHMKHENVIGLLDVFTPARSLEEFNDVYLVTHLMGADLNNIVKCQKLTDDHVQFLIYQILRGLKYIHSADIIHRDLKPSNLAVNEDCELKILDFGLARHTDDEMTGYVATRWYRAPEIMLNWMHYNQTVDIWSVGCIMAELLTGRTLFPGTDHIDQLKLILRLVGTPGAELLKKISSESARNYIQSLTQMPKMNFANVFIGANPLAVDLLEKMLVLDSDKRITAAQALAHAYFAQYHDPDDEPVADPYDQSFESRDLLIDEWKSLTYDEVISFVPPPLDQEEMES

On to `CN(C)CCNC(=O)Nc1cc(Oc2ccc(NC(=O)Nc3cc(C(C)(C)C)nn3-c3ccc(CO)cc3)c(Cl)c2Cl)ccn1` [Example 70, 1-(3-tert-butyl-1-(4-hydroxymethylphenyl)-1H-pyrazol-5-yl)-3-(2,3-dichloro-4-(2-(3-(2-(dimethylamino)ethyl)ureido)pyridin-4-yloxy)phenyl)urea], for which the IC50 in data set [1] was determined as 5.7 nM; in data set [3], 2.4 nM; in data set [5] it was 10.1 nM; in data set [6] it was 3.5 nM; at p38 MAPKγ (MAPK12), 30.1 nM. Besides, the “MTT Assay (Viability) 4 h d-U937, percentage loss of cell viability” value in data set [2] came out at 6.1%. In addition, the “MTT Assay (Viability) 24 h d-U937, percentage loss of cell viability” value in data set [2] is 94.1%. Moreover, the EC50 in data set [4] came out at 1.5 nM.
For `CC(C)(C)c1cc(NC(=O)Nc2ccc(Oc3ccnc(NC(=O)NCCN4CCOCC4)c3)c(Cl)c2Cl)n(-c2ccc(CO)cc2)n1` [Example 71, 1-(4-(4-(3-(3-tert-butyl-1-(4-hydroxymethylphenyl)-1H-pyrazol-5-yl)ureido)-2,3-dichlorophenoxy)pyridin-2-yl)-3-(2-morpholinoethyl) urea], the IC50 in data set [1] is 1.4 nM; in data set [3] it was 0.7 nM; in data set [5] it was 1.9 nM; in data set [6] it was 19.4 nM; at p38 MAPKγ (MAPK12) it was 60.4 nM. Moreover, in data set [2], the “MTT Assay (Viability) 4 h d-U937, percentage loss of cell viability” value was −20.5%. Besides, the “MTT Assay (Viability) 24 h d-U937, percentage loss of cell viability” value in data set [2] is listed as 84.3%. Also, the EC50 in data set [4] is 1.1 nM.
Consider `Cc1ccc(-n2nc(C(C)(C)C)cc2NC(=O)Nc2ccc(Oc3ccnc(NC(=O)N4CCCC4)c3)c(Cl)c2Cl)cc1` [Example 72, N-(4-(4-(3-(3-tert-butyl-1-p-tolyl-1H-pyrazol-5-yl)ureido)-2,3-dichlorophenoxy)pyridin-2-yl) pyrrolidine-1-carboxamide], for which the IC50 in data set [1] was 0.2 nM; in data set [3] it was 0.6 nM; in data set [5], 7.5 nM; in data set [6] it was 41.3 nM; on p38 MAPKγ (MAPK12), 315 nM. The “MTT Assay (Viability) 4 h d-U937, percentage loss of cell viability” value in data set [2] is −13.7%. In addition, in data set [2], the “MTT Assay (Viability) 24 h d-U937, percentage loss of cell viability” value is listed as 26.9%. For the same compound, the EC50 in data set [4] came out at 1.9 nM.
Consider `CNC(=O)Nc1cc(Oc2ccc(NC(=O)Nc3cc(C4(C)CCCCC4)nn3-c3ccc(C)cc3)c(Cl)c2Cl)ccn1` [Example 73, 1-(3-(1-methylcyclohexyl)-1-p-tolyl-1H-pyrazol-5-yl)-3-(2,3-dichloro-4-(2-(3-methylureido)pyridin-4-yloxy)phenyl)urea], for which the IC50 in data set [1] is 1.9 nM; in data set [3] it was 12.8 nM; in data set [5], 1300 nM; in data set [6], 151 nM; on p38 MAPKγ (MAPK12) it was 243 nM. In addition, the “MTT Assay (Viability) 4 h d-U937, percentage loss of cell viability” value in data set [2] is listed as −27.3%. In addition, the “MTT Assay (Viability) 24 h d-U937, percentage loss of cell viability” value in data set [2] is given as 12.3%. For the same compound, the EC50 in data set [4] was found to be 1.7 nM.
As for `Cc1ccc(-n2nc(C3(C)CCCCC3)cc2NC(=O)Nc2ccc(Oc3ccnc(NC(=O)N4CCCC4)c3)c(Cl)c2Cl)cc1` [Example 74, N-(4-(2,3-dichloro-4-(3-(3-(1-methylcyclohexyl)-1-p-tolyl-1H-pyrazol-5-yl)ureido)phenoxy)pyridin-2-yl)pyrrolidine-1-carboxamide], the IC50 in data set [1] is 2.7 nM; in data set [3], 11.5 nM; in data set [5], 4.6 nM; in data set [6], 328 nM; at p38 MAPKγ (MAPK12), 744 nM. Further, the “MTT Assay (Viability) 4 h d-U937, percentage loss of cell viability” value in data set [2] came to 1.2%. Besides, the “MTT Assay (Viability) 24 h d-U937, percentage loss of cell viability” value in data set [2] amounted to 5.5%. The EC50 in data set [4] is 0.5 nM.
